In US7834049B2, “Integrin expression inhibitor” (Eisai R&D Management Co., Ltd., priority 2000, dated 2010):
In brackets after ≈: the same amount, converted by molar mass.

Columns and labels:
integrin β4 = experiment: Integrin expression inhibitory action on human colonic cancer cell line HCT116-C9; assay type: cell-based
integrin α4 = experiment: Integrin expression inhibitory action on human normal fibroblast cell line WI38; assay type: cell-based; settings: WI38, higher concentration than in Examples 1 and 2 (0.5 μg/ml and 5 μg/ml), 48 hours
integrin α3 [1] = experiment: as above; assay type: cell-based; settings: WI38, higher concentration than in Examples 1 and 2 (0.5 μg/ml and 5 μg/ml), 48 hours
integrin α2 [2] = experiment: Integrin expression inhibitory action on human colonic cancer cell line HCT116-C9; assay type: cell-based
integrin α1 = experiment: Integrin expression inhibitory action on human normal fibroblast cell line WI38; assay type: cell-based; settings: WI38, higher concentration than in Examples 1 and 2 (0.5 μg/ml and 5 μg/ml), 48 hours
integrin β1 [3] = experiment: Integrin expression inhibitory action on human colonic cancer cell line HCT116-C9; assay type: cell-based
integrin α5 [4] = experiment: Integrin expression inhibitory action on human normal fibroblast cell line WI38; assay type: cell-based; settings: WI38, higher concentration than in Examples 1 and 2 (0.5 μg/ml and 5 μg/ml), 48 hours
Procedure: [Worded in the source for another cell line; this cell line is reported under the same test.] (§1) Human umbilical venous endothelial cells (HUVEC) of 5×10^5 in number were seeded in a 75 cm^2 cell culture bottle and then cultured using an EGM medium (Sanko Junyaku) at 37° C. in a CO2 incubator. Then, after 3 hours, the EGM medium was exchanged for the same medium including compound A, which was then cultured for further 48 hours. Next, the cells were collected and washed with a bovine serum albumin-containing phosphate buffer solution and the above buffer solution containing various anti-human integrin mouse antibodies was added to the cells and the solution containing cells was allowed to stand at 4° C. for 30 minutes. After washed, FITC connective anti-mouse IgG antibody was added to the cells, which was then allowed to stand for 30 minutes and washed again. Next, the cells were fixed and the amount of antibody connected per cell was measured as the amount of FITC by using a flow cytometer.
(§2) The integrin expression inhibitory action of the compound A on the above cells was examined in the same manner as in Example 1.

integrin α2 [5] = experiment: as above; assay type: cell-based; settings: WI38, higher concentration than in Examples 1 and 2 (0.5 μg/ml and 5 μg/ml), 48 hours
Procedure: [Worded in the source for another cell line; this cell line is reported under the same test.] as §1, §2

integrin β1 [6] = experiment: as above; assay type: cell-based; settings: WI38, higher concentration than in Examples 1 and 2 (0.5 μg/ml and 5 μg/ml), 48 hours
Procedure: [Worded in the source for another cell line; this cell line is reported under the same test.] as §1, §2

integrin α6 [7] = experiment: as above; assay type: cell-based; settings: WI38, higher concentration than in Examples 1 and 2 (0.5 μg/ml and 5 μg/ml), 48 hours
Procedure: [Worded in the source for another cell line; this cell line is reported under the same test.] as §1, §2

integrin α3 [8] = experiment: Integrin expression inhibitory action on human colonic cancer cell line HCT116-C9; assay type: cell-based
integrin α5 [9] = experiment: Integrin expression inhibitory action on HUVEC (flow cytometer); assay type: cell-based, human; settings: 0.05 μg/ml, 48 hours
Procedure: as §1

integrin β3 = experiment: as above; assay type: cell-based, human; settings: 0.05 μg/ml, 48 hours
Procedure: as §1

integrin α2 [10] = experiment: as above; assay type: cell-based, human; settings: 0.05 μg/ml, 48 hours
Procedure: as §1

integrin β5 = experiment: as above; assay type: cell-based, human; settings: 0.05 μg/ml, 48 hours
Procedure: as §1

integrin β1 [11] = experiment: as above; assay type: cell-based, human; settings: 0.05 μg/ml, 48 hours
Procedure: as §1

integrin αv = experiment: as above; assay type: cell-based, human; settings: 0.05 μg/ml, 48 hours
Procedure: as §1

integrin α6 [12] = experiment: as above; assay type: cell-based, human; settings: 0.05 μg/ml, 48 hours
Procedure: as §1

integrin α3 [13] = experiment: as above; assay type: cell-based, human; settings: 0.05 μg/ml, 48 hours
Procedure: as §1

integrin α5 [14] = experiment: Integrin expression inhibitory action on human colonic cancer cell line HCT116-C9; assay type: cell-based
[15] = test system: Human umbilical venous endothelial cells (HUVEC); experiment: Antiangiogenic effect-2: HUVEC tube formation between collagen layers; assay type: cell-based; settings: 96 h, HUVEC in type I collagen, 10 ng/ml EGF and 20 ng/ml bFGF, cultured 4 days, read-out: IC50, area of the formed tube
Procedure: 0.4 ml of type I collagen was added to a 24-well plate and solidified. Human umbilical venous endothelial cells (HUVEC) of 8×10^4 in number were seeded on the collagen and cultured overnight by using endothelial cells culture solution (Gibco BRL) containing 10 ng/ml EGF and 20 ng/ml bFGF. Next, the supernatant was removed and then 0.4 ml of the same collagen was overlaid. A culture solution containing 1.5 ml of the compound A was further added and the cells were cultured for 4 days. Thereafter, the area of the formed tube was measured quantitatively by image analysis.

integrin α6 [16] = experiment: Integrin expression inhibitory action on human colonic cancer cell line HCT116-C9; assay type: cell-based
Procedure: [Worded in the source for another cell line; this cell line is reported under the same test.] as §1, §2

[17] = test system: human colic cancer cell strains (WiDr) chamber in C57 Black female mouse; experiment: Antiangiogenic effect-3 (in vivo): mouse air capsule method with WiDr chamber; settings: dose of 50 mg/kg, orally administered, once a day; measured 4 days after chamber transplantation
Procedure: The above activity was evaluated using a method obtained by improving a mouse air capsule method (Sakamoto et al., Cancer Res., 1, 55-57, 1986) in part. Specifically, a millipore ring (Nippon Millipore) was sealed using a 0.22 μm membrane filter (HAWPO, Nippon Millipore) to form a chamber. 1×10^7 human colic cancer cell strains (WiDr) which were suspended in a phosphoric acid buffer solution were sealed into the chamber. Next, an air capsule was formed on a subcutaneous site of the backside of a C57 Black female mouse of 6 to 8 weeks age and the foregoing chamber was transplanted to the air capsule. The compound A was orally administered after about 6 hours passed after the transplantation was finished and afterwards administered in sequence once a day for 3 days. The erythrocytes of the mouse that was labeled with ^51Cr was injected from the tail vein 4 days after the chamber was transplanted. […] Then, a value obtained by subtracting the amount of blood measured in the case of the chamber including no cancer cell from the above amount of blood was determined as the amount of angiogenesis. […] If the results are evaluated by T/C (%): the amount of angiogenesis of the compound-administered groups/the amount of angiogenesis of the vehicle-administered groups×100, the compound A had such an effect as T/C=53% at a dose of 50 mg/kg.

[18] = HCT116-C9, 0.05 μg/ml, 48 hours

Cc1ccc(NS(=O)(=O)c2cccc(C#N)c2)c2[nH]cc(C#N)c12 [compound A, N-(3-Cyano-4-methyl-1H-indole-7-yl)-3-cyanobenzenesulfonamide]
expression of integrin β4 (integrin β4; [18]): inhibited | expression of integrin β4 (integrin β4; HCT116-C9, 0.5 μg/ml): inhibited | expression of integrin α4 (integrin α4): slightly inhibited | expression of integrin α3 (integrin α3 [1]): slightly inhibited | expression of integrin α2 (integrin α2 [2]; [18]): inhibited | expression of integrin α2 (integrin α2 [2]; HCT116-C9, 0.5 μg/ml): inhibited | expression of integrin α1 (integrin α1): no influence | expression of integrin β1 (integrin β1 [3]; [18]): inhibited | expression of integrin β1 (integrin β1 [3]; HCT116-C9, 0.5 μg/ml): inhibited | expression of integrin α5 (integrin α5 [4]): no influence | expression of integrin α2 (integrin α2 [5]): slightly inhibited | expression of integrin β1 (integrin β1 [6]): no influence | expression of integrin α6 (integrin α6 [7]): no influence | expression of integrin α3 (integrin α3 [8]; [18]): inhibited | expression of integrin α3 (integrin α3 [8]; HCT116-C9, 0.5 μg/ml): inhibited | expression of integrin α5 on the surface of the cell (integrin α5 [9]): inhibited | expression of integrin β3 on the surface of the cell (integrin β3): inhibited | expression of integrin α2 on the surface of the cell (integrin α2 [10]): inhibited | expression of integrin β5 on the surface of the cell (integrin β5): inhibited | expression of integrin β1 on the surface of the cell (integrin β1 [11]): inhibited | expression of integrin αv on the surface of the cell (integrin αv): inhibited | expression of integrin α6 on the surface of the cell (integrin α6 [12]): inhibited | expression of integrin α3 on the surface of the cell (integrin α3 [13]): inhibited | expression of integrin α5 (integrin α5 [14]; [18]): inhibited | expression of integrin α5 (integrin α5 [14]; HCT116-C9, 0.5 μg/ml): inhibited | IC50 [15]: 0.12 µg/mL (≈ 0.357 µM) | expression of integrin α6 (integrin α6 [16]; [18]): inhibited | expression of integrin α6 (integrin α6 [16]; HCT116-C9, 0.5 μg/ml): inhibited | T/C (%): amount of angiogenesis of compound-administered groups / vehicle-administered groups ×100 [17]: 53%
